SMILES strings stand for the structures. Values after ≈ are worked out from the molar mass of the structure shown.

For 36 molecules, MIC results are on record in US10647675B2 (priority 2015, dated 2020).

The subject of test [1] is Trichophyton mentagrophytes SM-110. The test is described as follows: Antifungal activity evaluation test: minimum inhibitory concentration (MIC), broth dilution by reference to CLSI M38-A2. The test is classed as cell-based. To be noted: SM110, read-out: MIC (T. menta.). In outline: (§1)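 Broth microdilution after CLSI M38-A2: 2-fold DMSO dilution series in MOPS-buffered RPMI 1640 pH 7.0, inoculum 2×10^3 cells/mL final. Incubated 35° C for 4 days; MIC (μg/mL) is lowest concentration giving visually ≥80% growth inhibition versus growth control.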
On the technique in general: Broth dilution looks for growth in wells or tubes with falling amounts of substance.

For test [2], the system named is Trichophyton rubrum KD-1130. The description is as above. To be noted: KD1130, read-out: MIC (T. rubrum). The test is classed as cell-based. Put shortly:
as §1

The MIC is the lowest concentration that inhibits growth of the organism. For `COc1ccccc1-c1cccnc1Oc1ccc(C2CC2)nc1` [I-128, 2-[(6-cyclopropylpyridin-3-yl)oxy]-3-(2-methoxyphenyl)pyridine], the MIC in test [1] and in test [2] was no more than 0.1 µg/mL each time.
For the molecule `COc1cc(F)ccc1-c1cccnc1Oc1ccc(C2CC2)nc1` [I-129, 2-[(6-cyclopropylpyridin-3-yl)oxy]-3-(4-fluoro-2-methoxyphenyl)pyridine], the MIC in test [1] and in test [2] was no more than 0.1 µg/mL in each case.
On to `COc1ncccc1-c1cccnc1Oc1ccc(C2CC2)nc1` [I-130, 2-[(6-cyclopropylpyridin-3-yl)oxy]-2′-methoxy-3,3′-bipyridine], for which the MIC in test [1] and in test [2] was 0.2 to 0.78 µg/mL (≈ 0.626 to 2.44 µM) in each case.
`COc1ncccc1-c1cccnc1Oc1cnc(C2CC2)c(Cl)c1` [I-131, 2-[(5-chloro-6-cyclopropylpyridin-3-yl)oxy]-2′-methoxy-3,3′-bipyridine]: the MIC in test [1] and in test [2] was 0.2 to 0.78 µg/mL (≈ 0.565 to 2.2 µM) throughout.
As for `COc1ccncc1-c1cccnc1Oc1cnc(C2CC2)c(Cl)c1` [I-132, 2-[(5-chloro-6-cyclopropylpyridin-3-yl)oxy]-4′-methoxy-3,3′-bipyridine], the minimal inhibitory concentration (MIC) in test [1] fell in the range of 0.2 to 0.78 µg/mL (≈ 0.565 to 2.2 µM); in test [2], 1.56 to 6.25 µg/mL (≈ 4.41 to 17.7 µM).
Regarding `COc1ccncc1-c1cccnc1Oc1ccc(C2CC2)nc1` [I-133, 2-[(6-cyclopropylpyridin-3-yl)oxy]-4′-methoxy-3,3′-bipyridine], the MIC in test [1] and in test [2] was 1.56 to 6.25 µg/mL (≈ 4.88 to 19.6 µM) each time.
As for `COc1ccccc1-c1cccnc1Oc1cnc2c(c1)CCCC2` [I-134, 3-{[3-(2-methoxyphenyl)pyridin-2-yl]oxy}-5,6,7,8-tetrahydroquinoline], the minimal inhibitory concentration (MIC) in test [1] and in test [2] was no more than 0.1 µg/mL each time.
With `COc1ncccc1-c1cccnc1Oc1cnc2c(c1)CCCC2` [I-135, 3-{[2′-methoxy-(3,3′-bipyridin)-2-yl]oxy}-5,6,7,8-tetrahydroquinoline], the MIC in test [1] and in test [2] was no more than 0.1 µg/mL each time.
On to `COc1ccccc1-c1cccnc1Oc1cnc2c(c1)CCCCC2` [I-136, 3-{[3-(2-methoxyphenyl)pyridin-2-yl]oxy}-6,7,8,9-tetrahydro-5H-cyclohepta[b]pyridine], for which the MIC in test [1] and in test [2] was no more than 0.1 µg/mL each time.
`c1cnc(Oc2cnc3c(c2)CCCC3)c(-c2cccc3c2OCC3)c1` [I-137, 3-{[3-(2,3-dihydrobenzyofuran-7-yl)pyridin-2-yl]oxy}-5,6,7,8-tetrahydroquinoline]: the minimal inhibitory concentration (MIC) in test [1] and in test [2] was no more than 0.1 µg/mL each time.
For `c1cnc(Oc2cnc3c(c2)CCC3)c(-c2cccc3c2OCC3)c1` [I-138, 3-{[3-(2,3-dihydrobenzofuran-7-yl)pyridin-2-yl]oxy}-6,7-dihydro-5H-cyclopenta[b]pyridine], the minimal inhibitory concentration (MIC) in test [1] and in test [2] was no more than 0.1 µg/mL in each case.
For `COc1ccccc1-c1cccnc1Oc1cnc2c(c1)CCCC2OC(C)=O` (stereo not drawn) [I-139, 3-{[3-(2-methoxyphenyl)pyridin-2-yl]oxy}-5,6,7,8-tetrahydroquinolin-8-yl acetate], the MIC in test [1] and in test [2] was 1.56 to 6.25 µg/mL each time.
For `COc1ccccc1-c1cccnc1Oc1cnc2c(c1)CCCC2O` (stereo not drawn) [I-140, 3-{[3-(2-methoxyphenyl)pyridin-2-yl]oxy}-5,6,7,8-tetrahydroquinolin-8-ol], the minimum inhibitory concentration (MIC) in test [1] and in test [2] was 0.2 to 0.78 µg/mL (≈ 0.574 to 2.24 µM) each time.
Consider `COc1ccccc1-c1cccnc1Oc1cnc2c(c1)CCCC2=O` [I-141, 3-{[3-(2-methoxyphenyl)pyridin-2-yl]oxy}-6,7-dihydroquinolin-8(5H)-one], for which the MIC in test [1] and in test [2] was 1.56 to 6.25 µg/mL (≈ 4.5 to 18 µM) each time.
As for `COc1ccccc1-c1cccnc1Oc1cnc2c(c1)CCCC2(F)F` [I-142, 8,8-difluoro-3-{[3-(2-methoxyphenyl)pyridin-2-yl]oxy}-5,6,7,8-tetrahydroquinoline], the MIC in test [1] and in test [2] was no more than 0.1 µg/mL each time.
For `COc1ccccc1-c1cccnc1Oc1cnc2c(c1)CCCC2N(C)C` (stereo not drawn) [I-143, 3-{[3-(2-methoxyphenyl)pyridin-2-yl]oxy}-N,N-dimethyl-5,6,7,8-tetrahydroquinolin-8-amine], the minimal inhibitory concentration (MIC) in test [1] and in test [2] was 0.2 to 0.78 µg/mL (≈ 0.533 to 2.08 µM) in each case.
Regarding `COc1ccccc1-c1cccnc1Oc1cnc2c(c1)CCC=C2` [I-144, 3-{[3-(2-methoxyphenyl)pyridin-2-yl]oxy}-5,6-dihydroquinoline], the MIC in test [1] and in test [2] was no more than 0.1 µg/mL throughout.
With `COCC(F)(F)c1ccc(Oc2ncccc2-c2ccccc2OC)cn1` [I-145, 2-{[6-(1,1-difluoro-2-methoxyethyl)pyridin-3-yl]oxy}-3-(2-methoxyphenyl)pyridine], the MIC in test [1] and in test [2] was no more than 0.1 µg/mL each time.
Consider `CNCC(F)(F)c1ccc(Oc2ncccc2-c2ccccc2OC)cn1` [I-146, 2,2-difluoro-2-(5-{[3-(2-methoxyphenyl)pyridin-2-yl]oxy}-pyridin-2-yl)-N-methylethanamine], for which the MIC lay in the range of 0.2 to 0.78 µg/mL (≈ 0.539 to 2.1 µM) in test [1] and 1.56 to 6.25 µg/mL (≈ 4.2 to 16.8 µM) in test [2].
Taken in the same sequence, the figures for `COc1ccccc1-c1cccnc1Oc1ccc(C(F)(F)CN(C)C)nc1` [I-147, 2,2-difluoro-2-(5-{[3-(2-methoxyphenyl)pyridin-2-yl]oxy}-2-yl)-N,N-dimethylethanamine] were no more than 0.1 µg/mL and 0.2 to 0.78 µg/mL (≈ 0.519 to 2.02 µM).
The corresponding values for `COc1ccccc1-c1cccnc1Oc1ccc(C(F)(F)CN2CCOCC2)nc1` [I-148, 4-[2,2-difluoro-2-(5-{[3-(2-methoxyphenyl)pyridin-2-yl]oxy}pyridin-2-yl)-ethyl]morpholine] are 0.2 to 0.78 µg/mL (≈ 0.468 to 1.82 µM) and 0.2 to 0.78 µg/mL (≈ 0.468 to 1.82 µM).
The corresponding values for `CCN(C)CC(F)(F)c1ccc(Oc2ncccc2-c2ccccc2OC)cn1` [I-149, N-ethyl-2,2-difluoro-2-(5-{[3-(2-methoxyphenyl)pyridin-2-yl]oxy}-pyridin-2-yl)-N-methylethanamine] are 0.2 to 0.78 µg/mL (≈ 0.501 to 1.95 µM) and 0.2 to 0.78 µg/mL (≈ 0.501 to 1.95 µM).
Consider `COc1ccccc1-c1cccnc1Oc1ccc(C(F)(F)CN(C)OC)nc1` [I-150, N-[2,2-difluoro-2-(5-{[3-(2-methoxyphenyl)pyridin-2-yl]oxy}pyridin-2-yl)ethyl]-N,O-dimethylhydroxylamine], for which the MIC in test [1] and in test [2] was no more than 0.1 µg/mL throughout.
As to `COc1ccccc1-c1cccnc1Oc1ccc(C(F)(F)CN(C)C(C)=O)nc1` [I-151, N-[2,2-difluoro-2-(5-{[3-(2-methoxyphenyl)pyridin-2-yl]oxy}-2-yl)-ethyl]-N-methylacetamide], the minimal inhibitory concentration (MIC) in test [1] and in test [2] was 0.2 to 0.78 µg/mL (≈ 0.484 to 1.89 µM) each time.
With `COC(=O)N(C)CC(F)(F)c1ccc(Oc2ncccc2-c2ccccc2OC)cn1` [I-152, methyl [2,2-difluoro-2-(5-{[3-(2-methoxyphenyl)pyridin-2-yl]oxy}pyridin-2-yl)ethyl](methyl)carbamate], the MIC in test [1] and in test [2] was 0.2 to 0.78 µg/mL (≈ 0.466 to 1.82 µM) each time.
Regarding `COc1ccccc1-c1cccnc1Oc1ccc(C(F)(F)Cn2cc(C)cn2)nc1` [I-153, 2-{(6-[1,1-difluoro-2-(4-methyl-1H-pyrazol-1-yl)ethyl]pyridin-3-yl}oxy)-3-(2-methoxyphenyl)pyridine], the MIC in test [1] and in test [2] was no more than 0.1 µg/mL in each case.
For the molecule `COc1cc(F)ccc1-c1cccnc1Oc1ccc(C(F)(F)CO)nc1` [I-154, 2,2-difluoro-2-(5-{[3-(4-fluoro-2-methoxyphenyl)pyridin-2-yl]oxy}pyridin-2-yl)-ethanol], the MIC in test [1] and in test [2] was 0.2 to 0.78 µg/mL (≈ 0.531 to 2.07 µM) throughout.
In the case of `CCOCC(F)(F)c1ccc(Oc2ncccc2-c2ccc(F)cc2OC)cn1` [I-155, 2-{[6-(2-ethoxy-1,1-difluoroethyl)pyridin-3-yl]oxy}-3-(4-fluoro-2-methoxyphenyl)pyridine], the minimum inhibitory concentration (MIC) in test [1] and in test [2] was no more than 0.1 µg/mL in each case.
As to `COc1cc(F)ccc1-c1cccnc1Oc1ccc(C(F)(F)Cn2cccn2)nc1` [I-157, 2-{(6-[1,1-difluoro-2-(1H-pyrazol-1-yl)ethyl]pyridin-3-yl)oxy}-3-(4-fluoro-2-methoxyphenyl)pyridine], the minimum inhibitory concentration (MIC) in test [1] and in test [2] was no more than 0.1 µg/mL in each case.
As for `COc1cc(F)ccc1-c1cccnc1Oc1ccc(C(F)(F)Cn2ccnc2)nc1` [I-158, 2-{(6-[1,1-difluoro-2-(1H-imidazol-1-yl)ethyl]pyridin-3-yl)oxy}-3-(4-fluoro-2-methoxyphenyl)pyridine], the minimum inhibitory concentration (MIC) was no more than 0.1 µg/mL in test [1] and 0.2 to 0.78 µg/mL (≈ 0.469 to 1.83 µM) in test [2].
Taken in the same sequence, the figures for `COCCOCC(F)(F)c1ccc(Oc2ncccc2-c2ccc(F)cc2OC)cn1` [I-159, 2-({6-[1,1-difluoro-2-(2-methoxyethoxy)ethyl]pyridin-3-yl}oxy)-3-(4-fluoro-2-methoxyphenyl)pyridine] were no more than 0.1 µg/mL and 0.2 to 0.78 µg/mL (≈ 0.46 to 1.8 µM).
The corresponding values for `C#CCOCC(F)(F)c1ccc(Oc2ncccc2-c2ccccc2OC)cn1` [I-160, 2-({6-[1,1-difluoro-2-(2-propyl-1-yloxy)ethyl]pyridin-3-yl}oxy)-3-(2-methoxyphenyl)pyridine] are no more than 0.1 µg/mL and no more than 0.1 µg/mL.
As for `COCC(F)(F)c1ccc(Oc2ncccc2-c2ccc(F)cc2OC)cn1` [I-161, 2-{[6-(1,1-difluoro-2-methoxyethyl)pyridin-3-yl]oxy}-3-(4-fluoro-2-methoxyphenyl)pyridine], the MIC in test [1] and in test [2] was no more than 0.1 µg/mL in each case.
As to `COCC(F)(F)c1ccc(Oc2ncccc2-c2cc(F)ccc2OC)cn1` [I-162, 2-{[6-(1,1-difluoro-2-methoxyethyl)pyridin-3-yl]oxy}-3-(5-fluoro-2-methoxyphenyl)pyridine], the minimal inhibitory concentration (MIC) in test [1] and in test [2] was no more than 0.1 µg/mL each time.
On to `COCC(F)(F)c1ccc(Oc2ncccc2-c2cc(Cl)ccc2OC)cn1` [I-163, 3-(5-chloro-2-methoxyphenyl)-2-{[6-(1,1-difluoro-2-methoxyethyl)pyridin-3-yl]oxy}pyridine], for which the MIC in test [1] and in test [2] was no more than 0.1 µg/mL each time.
Turning to `COCC(F)(F)c1ccc(Oc2ncccc2-c2cc(OC)c(F)cc2F)cn1` [I-165, 2-{[6-(1,1-difluoro-2-methoxyethyl)pyridin-3-yl]oxy}-3-(2,4-difluoro-5-methoxyphenyl)pyridine], the minimum inhibitory concentration (MIC) in test [1] and in test [2] was no more than 0.1 µg/mL each time.
